From US6808699B2, “Methods for imaging pulmonary and cardiac vasculature and evaluating blood flow using dissolved polarized 129Xe” (Medi-Physics, Inc., priority 1998, dated 2004)
Where two headings read alike, the source gives them in different places.

Key:
[1] = cited from earlier work; for longitudinal relaxation time T1: dissolved phase, estimated
[2] = longitudinal relaxation time T1 of polarized 129Xe; format: physicochemical, human; settings: gas in the lung, with decay due to blood uptake included
From the text: As will be appreciated by those of skill in the art, imaging with polarized dissolved gas depends on transport of sufficient surviving polarization or magnetization to tissues of interest. In a preferred embodiment, the tissues of interest include the pulmonary region, and particularly the pulmonary vasculature. As will also be appreciated by those of skill in the art, polarization decays corresponding to the longitudinal relaxation time, T1. Dissolved phase ^129Xe can have a relatively short relaxation time (T1) generally thought to be due to the presence of oxygen and due to paramagnetic deoxyhemoglobin in the blood. For example, T1 for substantially fully oxygenated human cell membranes is estimated at about 15 seconds. Alternatively, T1 in blood has also been estimated as about 5 seconds. See A. Bifone et al., 93 Proc. Natl. Acad. Sci., p. 12932 (1996). Taking the estimated upper limit of about a five second transit time to the heart as discussed above, the xenon polarization can be attenuated to about ⅓ of its starting value at the heart. This relationship supports that TR should be shortened to less than about 2.5 seconds, and preferably less than about 1-2 seconds. Correspondingly, with about a 2.5 second transit time, the magnetization can be calculated as noted above to be about 0.61 of its starting magnetization. […]

Question: Which “longitudinal relaxation time T1” value ([1]; in blood, Bifone et al. 1996) does the source give for `[129Xe]` [^129Xe, Xenon-129] here?
Answer: about 5 seconds

Question: What about the “longitudinal relaxation time T1” value ([1]; substantially fully oxygenated human cell membranes) of the same compound?
Answer: about 15 seconds

Question: And the “gas phase T1” value ([1]; gas phase in the lungs, estimated from generally known oxygen related effects)?
Answer: about 35 seconds

Question: And the “effective T1” value [2]?
Answer: about 33 seconds
